Data as given in patent US11654292B2 (priority 2017, dated 2023).
Like-named read-outs stand apart in the source and are kept apart here.

Tests used:
[1] = system: MCF-10a normal breast epithelial cells; experiment: Cell lysis, digoxin with 80 mT pulsed magnetic field in solenoid; assay type: cell-based; details: 100 nM digoxin + 80 mT magnetic pulses at 25 Hz
From the text: (§1) Tubes were placed in an 8″1X 2.5″dia. solenoid with 697 turns (500 ft.) of 12 ga copper wire. A 5VDC current from an AE Techron 7224 DC-extended AC amplifier pulsed at 25 Hz, with a 10 msec ramp and fall, controlled by a Techtronics AFG 3021B waveform generator produced 80 mT magnetic pulses in the solenoid.

[2] = system: MDA-MB-231 breast cancer cells; experiment: as above; assay type: cell-based; details: 100 nM digoxin + 80 mT magnetic pulses at 25 Hz, within 10 min
From the text: as §1

MDA-MB-231 xenografts = experiment: In vivo TOL (digoxin + PMF) in mice with MDA-MB-231 xenografts; design: species or system J/Nu mice
Procedure: This protocol establishes steady-state pharmacokinetics in even poorly vascularized tissues. The mice were exposed to the pulsed magnetic field, using the same parameters as with the cultured cells, for 15 min starting 30 min after the last injection. This treatment was repeated two and four days after the first treatment. Mice were sacrificed and fixed with 4% paraformaldehyde 24 hrs after the third treatment. Tissues from these animals were sectioned and evaluated by a pathologist that was blind to the treatment.

[3] = system: mouse breast cancer, 4T1, cells; experiment: In vivo TOL (digoxin + PMF) in immune competent mice with 4T1 tumors; design: species or system BALBc mice; details: 7 mg/kg digoxin s.c. x5 + PMF 30 min on day 0, 2 and 4 (TOL), FIG. 7
Procedure: FIG. 7A. […] Arrows indicate days of treatment; 7B. […] Thus, the life expectancy of mice treated with TOL exceeds that of controls by approximately 1 week.
This treatment was administered on day 0 (first day of treatment), on day 2 and on day 4. Mice were monitored for tumor growth and were sacrificed when they met the NIH criteria for humane endpoint euthanasia.

MDA-MB-231 cells [4] = experiment: Stimulus intensity-response curve of pulsed magnetic field for cell lysis; assay type: cell-based; details: 500 nM digoxin, PMF stimulus intensity 80 mT (FIG. 1)
Procedure: FIG. 1 Stimulus intensity—response curve to determine the strength of the pulsed magnetic field necessary to produce cell lysis of MDA-MB-231 cells, in vitro (p<0.01).
A study was conducted where cells were pulsed with an increasing stimulus intensity to determine the strength of the pulsed magnetic field necessary to produce cell lysis of MDA-MB-231 cells in vitro. […] All tubes were exposed to a 0 to 80 mT PMF.

MDA-MB-231 cells [5] = experiment: Sodium dependence of TOL in Ringer's solution with or without sodium; assay type: cell-based; details: Homo sapiens, MDA-MB-231, 10 min
Procedure: FIG. 2 TOL is dependent on the presence of sodium.
A study was conducted where the culture media containing MDA-MB-231 cells was replaced with Ringer's solution with or without sodium and then stimulated with pulsed magnetic fields of 80 mT for 10 minutes. Cells were transferred to microfuge tubes containing either Ringers +Na^+ or Ringers−Na^+.

MDA-MB-231 cells [6] = experiment: Trypan Blue estimate of cell lysis, ouabain with or without pulsed z-gradient magnetic field (MRI); assay type: cell-based
Procedure: Two tubes of MDA-MB-231 cells were prepared. The media in one tube was replaced by media containing 100 nM ouabain to block the sodium pumps. Both tubes were placed in the MRI and offset from center by 317 mm in the z-gradient field and exposed to the pulsed magnetic field. The samples were then repositioned and imaged.
After imaging, the cells in each vial were stained with Trypan Blue to estimate the number of cells that had been lysed by each treatment: (A) magnetic stimulation alone or (B) ouabain and magnetic stimulation. Virtually all of the cells that had only been exposed to pulsed magnet field stimulation were alive (expelled the Trypan Blue stain) and 10-15% of the cells that had been simultaneously treated with ouabain and pulse magnetic field stimulation were dead (appeared shrunken and retained the stain).
In this example, cells were exposed to ouabain for over 60 min during the preparation for the magnetic field stimulation. Because lysis may occur in a small percentage of cells when exposed to ouabain alone, a study was conducted where a vial of cells was exposed to ouabain without pulsed field stimulation for greater than 90 min.
The duration, amplitude and frequency of the pulsed z-gradient field was varied. All targeted osmotic lysis (TOL) vials (ouabain and pulsed magnetic field stimulation) were exposed to 100 nM ouabain for 10 min. Ouabain-treated and normal MDA-MB 231 control vials were exposed to the same pulsed magnetic field and then stained with Trypan Blue to estimate the amount of cell lysis in each tube. Two trials were conducted using the maximum field strength available (289.1689 Amp). The pulsed stimulus for the first of these trials was delivered with a rise time of 10 msec, a 2.5 msec return to baseline and an inter-stimulus interval of 17.5 msec; the stimulus was pulsed with a rise time of 10 msec, a 2.5 msec return to baseline and an inter-stimulus interval of 7.5 msec for the second trial. […]

SMILES | cell lysis when stimulated [1] | cells lysed [2] [%] | tumor lysis (MDA-MB-231 xenografts; 5 mg/kg digoxin s.c. five times at 1 hr intervals + PMF 15 min, three treatments (TOL)) | median tumor necrosis score (grade 1-5) vs controls (MDA-MB-231 xenografts; 5 mg/kg digoxin s.c. x5 + PMF (TOL), FIG. 4, p<0.05) | tumor histology, drug-only control vs untreated controls (MDA-MB-231 xenografts; 5 mg/kg digoxin s.c. x5, no magnetic stimulation) | tumor growth rate vs controls (MDA-MB-231 xenografts; TOL (Dig-PMF), FIG. 6) | time to reach humane endpoint euthanasia criteria vs control groups [3] | cell lysis (MDA-MB-231 cells [4]) [%] | cytotoxicity at 0.5 µM (MDA-MB-231 cells [5]; read-out: non-viable cells, 500 nM digoxin + 80 mT PMF 10 min (Dig-PMF), Ringers +Na+ (FIG. 2)) [%] | cytotoxicity at 0.5 µM (MDA-MB-231 cells [5]; read-out: non-viable cells, 500 nM digoxin + 80 mT PMF 10 min (Dig-PMF), Ringers without sodium (FIG. 2)) [%] | cell lysis, kill rate (MDA-MB-231 cells [6]; 100 nM ouabain 10 min + pulsed z-gradient field, amplitude 289.1689, inter-pulse interval 7.5 msec (50 Hz)) | cells dead (retained Trypan Blue stain) (MDA-MB-231 cells [6]; 100 nM ouabain (over 60 min) + pulsed z-gradient magnetic field 5 min, amplitude 187.5973, inter-stimulus interval 17.5 msec) | cells dead (MDA-MB-231 cells [6]; ouabain alone, no pulsed field stimulation, greater than 90 min)
C[C@H]1O[C@@H](O[C@H]2[C@@H](O)C[C@H](O[C@H]3[C@@H](O)C[C@H](O[C@H]4CC[C@@]5(C)[C@H](CC[C@@H]6[C@@H]5C[C@@H](O)[C@]5(C)[C@@H](C7=CC(=O)OC7)CC[C@]65O)C4)O[C@@H]3C)O[C@@H]2C)C[C@H](O)[C@@H]1O [digoxin] | Neither digoxin-treated nor untreated MCF-10a cells lysed | 97.5 | 80-100% | significantly greater | did not differ from untreated controls | significantly slower | significantly longer | ~100 | ~70 | < 20 |  |  | 
C[C@@H]1O[C@@H](O[C@H]2C[C@@H](O)[C@]3(CO)[C@H]4[C@H](O)C[C@]5(C)[C@@H](C6=CC(=O)OC6)CC[C@]5(O)[C@@H]4CC[C@]3(O)C2)[C@H](O)[C@H](O)[C@H]1O [ouabain] |  |  |  |  |  |  |  |  |  |  | 80-90% | 10-15% | Less than 1%
